According to ChEMBL document CHEMBL6127051, “Hydrazinecarboxamides: Comprehensive review of their anticancer, anticonvulsive, anti-inflammatory, enzyme inhibition, antioxidant and other activities” (Eur J Med Chem, 2024):
Values after ≈ are worked out from the molar mass of the structure shown.

Key:
A549 [1] = assay: Antiproliferative activity against human A549 cells; type: functional, cell-based
MCF7 [2] = assay: Antiproliferative activity against human MCF7 cells assessed as reduction in cell viability incubated for 72 hrs by MTT assay; type: functional, cell-based; settings: MCF7, 72 h
A549 [3] = assay: Antiproliferative activity against human A549 cells assessed as reduction in cell viability by MTT assay; type: functional, cell-based
Mus musculus [4] = assay: Anticonvulsant activity in ip dosed scPTZ induced Kunming mouse seizure model; type: functional
Mus musculus [5] = assay: Anticonvulsant activity in ip dosed MES induced Kunming mouse seizure model; type: functional
MCF7 [6] = assay: Antiproliferative activity against human MCF7 cells by MTT assay; type: functional, cell-based
NCI-H460 = assay: Antiproliferative activity against human NCI-H460 cells by MTT assay; type: functional, cell-based
Cholinesterase = Cholinesterase (Equus caballus, UniProt P81908); assay: Inhibition of equine serum BChE using butyrylthiocholine iodide as substrate measured after 15 mins by Ellman's method
Chain of Cholinesterase (P81908 whole entry): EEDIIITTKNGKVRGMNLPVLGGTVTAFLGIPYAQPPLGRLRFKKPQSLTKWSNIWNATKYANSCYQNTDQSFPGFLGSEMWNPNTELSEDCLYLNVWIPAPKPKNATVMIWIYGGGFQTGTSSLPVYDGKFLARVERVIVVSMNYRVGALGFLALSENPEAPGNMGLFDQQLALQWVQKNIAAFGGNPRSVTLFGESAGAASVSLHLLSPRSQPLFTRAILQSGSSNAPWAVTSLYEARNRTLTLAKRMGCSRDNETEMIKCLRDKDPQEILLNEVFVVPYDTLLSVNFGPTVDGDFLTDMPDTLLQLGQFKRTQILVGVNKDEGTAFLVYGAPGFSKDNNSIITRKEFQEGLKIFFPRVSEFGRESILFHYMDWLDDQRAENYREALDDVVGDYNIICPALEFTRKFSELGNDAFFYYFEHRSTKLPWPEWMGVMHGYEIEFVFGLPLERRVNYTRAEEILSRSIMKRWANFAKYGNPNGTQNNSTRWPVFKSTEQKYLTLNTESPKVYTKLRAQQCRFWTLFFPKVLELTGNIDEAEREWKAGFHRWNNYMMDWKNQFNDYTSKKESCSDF

[7] = target: T1, Retinoic acid receptor RXR-alpha (Homo sapiens, UniProt P19793); assay: Antagonist activity at RXRalpha (unknown origin) by Alpha Screen assay
T1 sequence (P19793 whole entry): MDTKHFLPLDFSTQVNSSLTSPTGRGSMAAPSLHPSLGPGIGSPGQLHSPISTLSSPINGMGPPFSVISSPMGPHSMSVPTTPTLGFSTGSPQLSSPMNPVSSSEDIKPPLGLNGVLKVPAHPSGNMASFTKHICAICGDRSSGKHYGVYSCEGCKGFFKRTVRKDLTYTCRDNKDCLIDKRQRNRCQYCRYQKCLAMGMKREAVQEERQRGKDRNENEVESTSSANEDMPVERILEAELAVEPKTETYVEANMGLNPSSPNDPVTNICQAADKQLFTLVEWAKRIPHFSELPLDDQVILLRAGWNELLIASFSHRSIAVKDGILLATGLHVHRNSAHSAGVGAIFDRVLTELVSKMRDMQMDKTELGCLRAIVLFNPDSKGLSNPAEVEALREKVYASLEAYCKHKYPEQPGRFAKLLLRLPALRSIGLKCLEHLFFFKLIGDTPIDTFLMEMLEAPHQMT

A549 [8] = assay: Antiproliferative activity against human A549 cells assessed as reduction in cell viability measured for 24 hrs by MTT assay; settings: A549, 24 h
HepG2 [9] = assay: Antiproliferative activity against human HepG2 cells assessed as reduction in cell viability measured for 24 hrs by MTT assay; settings: HepG2, 24 h
PC-3 [10] = assay: Anticancer activity against human PC-3 cells assessed as inhibition of cell growth at 3 uM incubated for 48 hrs by MTT assay relative to control; type: functional; parameters: scale not given: the % may be the effect or the level left
A549 [11] = assay: Anticancer activity against human A549 cells assessed as inhibition of cell growth at 3 uM incubated for 48 hrs by MTT assay relative to control; type: functional; parameters: scale not given: the % may be the effect or the level left
UO-31 = assay: Antiproliferative activity against human UO-31 cells assessed as inhibition of cell growth at 10 uM relative to control; type: functional; parameters: scale not given: the % may be the effect or the level left
MCF7 [12] = assay: Cytotoxicity against human MCF7 cells assessed as reduction in cell growth; type: functional, cell-based
[13] = Antioxidant activity assessed as DPPH radical scavenging activity at 10 ug/ml; type: functional; settings: dose 10.0 µg/ml
MCF7 [14] = assay: Anticancer activity against human MCF7 cells assessed as reduction in cell growth incubated for 24 hrs by MTT assay; type: functional, cell-based; settings: MCF7, 24 h
Mus musculus [15] = assay: Anticonvulsant activity in po dosed scPTZ induced mouse model measured after 4 hrs; type: functional
[16] = Antiproliferative activity against human MRC5 cells assessed as reduction in cell growth; type: toxicity, cell-based
PANC-1 = assay: Induction of apoptosis in human PANC-1 cells assessed as apoptotic cells at 2 uM incubated for 24 hrs by flow cytometric analysis relative to control; type: functional
MCF7 [17] = assay: Anticancer activity against human MCF7 cells assessed as reduction in cell growth measured after 3 days by MTT assay; type: functional, cell-based; settings: MCF7, 72 h
PC-3 [18] = assay: Cytotoxicity against human PC-3 cells; type: functional, cell-based
[19] = Cytotoxicity against human HEK cells; type: toxicity, cell-based
PC-3 [20] = assay: Cytotoxicity against human PC-3 cells assessed as inhibition of cell growth; type: functional, cell-based
MCF7 [21] = assay: Cytotoxicity against human MCF7 cells assessed as inhibition of cell growth; type: functional, cell-based
MCF7 [22] = assay: Antiproliferative activity against human MCF7 cells assessed as reduction in cell viability measured for 72 hrs by MTT assay; type: functional, cell-based; settings: MCF7, 72 h
MCF7 [23] = assay: Antiproliferative activity against human MCF7 cells; type: functional, cell-based
MDA-MB-231 = assay: Antiproliferative activity against human MDA-MB-231 cells; type: functional, cell-based
[24] = Inhibition of Escherichia coli beta-glucuronidase
HeLa = assay: Cytotoxicity against human HeLa cells assessed as reduction in cell viability by MTT assay; type: functional, cell-based
HepG2 [25] = assay: Cytotoxicity against human HepG2 cells assessed as reduction in cell viability by MTT assay; type: functional, cell-based
MCF7 [26] = assay: Cytotoxicity against human MCF7 cells assessed as reduction in cell viability by MTT assay; type: functional, cell-based
HCT-116 = assay: Cytotoxicity against human HCT-116 cells assessed as reduction in cell viability by MTT assay; type: functional, cell-based

## COc1cc(NC(C)CCCNC(=O)NNC(=O)NC2CCCC2)c2ncccc2c1 (stereo not given)
A549 [1]
  IC50: 1.5 µM
MCF7 [2]
  IC50: 1 µM
A549 [3]
  IC50: 4 µM

## CCOC(=O)C1(NC(=O)NNS(=O)(=O)c2ccccc2Cl)CC1(C)C (stereo not given)
Mus musculus [4]
  ED50: 82.6 mg/kg
Mus musculus [5]
  ED50: 82.6 mg/kg

## Cc1nc(-c2cccnc2)ccc1C(=O)NNC(=O)Nc1c(Cl)cc(Cl)cc1Cl
MCF7 [6]
  IC50: 8.89 µM
NCI-H460
  IC50: 8.89 µM

## CNC(=O)NNC(=O)c1ccc(Cl)cc1
Cholinesterase
  IC50: 22 µM

## O=C(NCCc1ccccc1)NNC(=O)c1ccc(Nc2nccc(-c3ccncc3)n2)cc1
[7]
  EC50: 1.05 µM
A549 [8]
  IC50: 8.39 µM
HepG2 [9]
  IC50: 2.17 µM

## CCOC(=O)C1(NC(=O)NNc2ccc(F)cc2)CC1(C)C (stereo not given)
Mus musculus [4]
  ED50: 9.2 mg/kg

## COc1ccc(C(C)(C)C)cc1NC(=O)NNC1=NS(=O)(=O)c2ccccc2N1c1ccccc1
PC-3 [10]
  Activity: >=71%
A549 [11]
  Activity: 99%

## Cc1nc(NC(=O)Nc2ccccc2)sc1C(=O)NNC(=O)Nc1ccccc1
UO-31
  Activity: 14.8%

## O=C(NNC(=O)n1nnc2ccccc21)NC(c1ccccc1)c1ccccc1
MCF7 [12]
  IC50: 79 µM

## COc1cc(/C=C2\N=C(C)N(NC(=O)N3c4ccccc4C=Cc4ccccc43)C2=O)cc(OC)c1OC
[13]
  Activity: 73.9%

## NNC(=O)Nc1nc2ccccc2o1
MCF7 [14]
  IC50: 218 µM

## CC1(C)CC12NC(=O)N(Nc1ccc(F)cc1)C2=O (stereo not given)
Mus musculus [15]
  ED50: 61.8 mg/kg

## COc1ccc(NC(=O)NNC(=O)c2oc3ccccc3c2CN2CCN(c3ccccc3)CC2)cn1
[16]
  IC50: 74 µM
PANC-1
  Activity: 29.93%

## COc1cc(NC(C)CCCNC(=O)NNC(=O)/C=C/c2cc(C(F)(F)F)cc(C(F)(F)F)c2)c2ncccc2c1 (stereo not given)
MCF7 [17]
  IC50: 0.03 µM

## COc1cc(NC(C)CCCNC(=O)NNC(=O)/C=C/c2cccc(C(F)(F)F)c2)c2ncccc2c1 (stereo not given)
MCF7 [17]
  IC50: 0.03 µM

## CCc1nc2cc(Cl)c(Cl)cc2n1CC(=O)NNC(=O)Nc1ccccc1
PC-3 [18]
  IC50: 25.2 µg/mL (≈ 62 µM)
[19]
  IC50: 127 µg/mL (≈ 312 µM)
PC-3 [20]
  IC50: 25.2 µg/mL (≈ 62 µM)
MCF7 [21]
  IC50: 25.2 µg/mL (≈ 62 µM)

## Cc1nc(-c2cccnc2)ccc1C(=O)NNC(=O)Nc1ccc(F)cc1F
MCF7 [6]
  IC50: 8.89 µM
NCI-H460
  IC50: 8.89 µM

## O=C(NNC1=NS(=O)(=O)c2ccccc2N1c1ccccc1)Nc1cc(C(F)(F)F)cc(C(F)(F)F)c1
PC-3 [10]
  Activity: >=71%
A549 [11]
  Activity: 99%

## O=C(NNC(=O)c1cc2ccccc2[nH]1)NC1CCCCC1
MCF7 [22]
  IC50: 1.2 µM

## COc1cc(NC(C)CCCNC(=O)NNC(=O)NC(c2ccccc2)c2ccccc2)c2ncccc2c1 (stereo not given)
A549 [1]
  IC50: 1.5 µM
MCF7 [2]
  IC50: 1 µM
A549 [3]
  IC50: 4 µM

## Cc1ccc(NC(=O)NNC(=O)c2cc3ccccc3[nH]2)cc1
MCF7 [23]
  IC50: 9.03 µM
MDA-MB-231
  IC50: 9.03 µM
MCF7 [22]
  IC50: 1.2 µM

## O=C(NNC(=O)n1nnc2ccccc21)NC1CCCC1
MCF7 [12]
  IC50: 79 µM

## COc1ccc(CC(=O)NNC(=O)Nc2ccccc2OC)cc1
[24]
  IC50: 16.8 µM

## O=C(NCCc1ccccc1)NNC(=O)n1nnc2ccccc21
MCF7 [12]
  IC50: 79 µM

## CC(C)(C)NC(=O)NNC(=O)c1ccc(Nc2nccc(-c3ccncc3)n2)cc1
[7]
  EC50: 1.05 µM
A549 [8]
  IC50: 8.39 µM
HepG2 [9]
  IC50: 2.17 µM

## CC1(C)CC12NC(=O)N(Nc1ccc([N+](=O)[O-])cc1[N+](=O)[O-])C2=O (stereo not given)
Mus musculus [15]
  ED50: 126 mg/kg

## COc1cc(NC(C)CCCNC(=O)NNC(=O)NO)c2ncccc2c1 (stereo not given)
A549 [1]
  IC50: 1.5 µM
MCF7 [2]
  IC50: 1 µM
A549 [3]
  IC50: 4 µM

## Cc1c(C(=O)NNC(=O)Nc2ccc([N+](=O)[O-])cc2)nnn1Cc1nc2ccccc2[nH]1
HeLa
  IC50: 19.1 µM
HepG2 [25]
  IC50: 25 µM
MCF7 [26]
  IC50: 16.6 µM
HCT-116
  IC50: 32.8 µM

## CC1=N/C(=C\c2ccc(Cl)cc2)C(=O)N1NC(=O)N1c2ccccc2C=Cc2ccccc21
[13]
  Activity: 73.9%

## Cc1ccc(N(C(=O)CNN2C(=O)C(=O)N(C(C)C)C2=O)C2(C(N)=O)CCCCC2)cc1
Mus musculus [5]
  ED50: 44.5 mg/kg

## O=C(NO)NNC(=O)n1nnc2ccccc21
MCF7 [12]
  IC50: 79 µM
